# Measurements taken from US9321738B2, “N-alkyltriazole compounds as LPAR antagonists” (Hoffmann-La Roche Inc., priority 2012, dated 2016).
# What was measured:
# [1] = target: human recombinant LPA1 Lysophospholipid receptor (Homo sapiens (Human), UniProt Q92633); test: Calcium flux assay using FLIPR, LPAR1 antagonist activity; format: cell-based; details: for IC50: ChemiScreen stable cell line, antagonist mode, calcium flux
# Method: (§1) Calcium Flux Assay Using Fluorometric Imaging Plate Reader (FLIPR)
# Cell Culture Conditions: The ChemiScreen Calcium-optimized stable cell line containing the human recombinant LPA1 Lysophospholipid receptor was purchased from Chemicon International, Inc./Millipore. The cells were cultured in DMEM-high glucose supplemented with 10% fetal bovine serum, 2 mM glutamine, 100 U/mL penicillin/100 μg/mL streptomycin, 1× non-essential amino acids, 10 mM HEPES and 0.25 mg/mL Geneticin. Cells were harvested with trypsin-EDTA and counted using ViaCount reagent. The cell suspension volume was adjusted to 2.0×10^5 cells/mL with complete growth media. Aliquots of 50 μL were dispensed into 384 well black/clear tissue culture treated plates (BD) and the microplates were placed in a 37° C. incubator overnight. The following day plates were used in the assay.
# (§2) Dye Loading and Assay: Loading Buffer (FLIPR Calcium-4, Molecular Devices) was prepared by dissolving the contents of one bottle into 100 mL Hank's Balanced Salt Solution containing 20 mM HEPES and 2.5 mM probenecid. Plates were loaded onto Biotek plate washer and growth media was removed and replaced with 20 μL of Hank's Balanced Salt Solution containing 20 mM HEPES and 2.5 mM probenecid, followed by 25 μL of Loading Buffer. The plates were then incubated for 30 minutes at 37° C.
# (§3) During the incubation, test compounds were prepared by adding 90 μL of HBSS/20 mM HEPES/0.1% BSA buffer to 2 μL of serially diluted compounds. To prepare serial dilutions, 10 mM stocks of compounds were prepared in 100% DMSO. The compound dilution plate was set up as follows: well #1 received 29 μL of stock compound and 31 μL DMSO. Wells 2-10 received 40 μL of DMSO. After mixing, 20 μL of solution from well #1 was transferred into well #2, followed by 1:3 serial dilutions out 10 steps. 2 μL of diluted compound was transferred into duplicate wells of 384 well “assay plate” and then 90 μL of buffer was added.
# (§4) After incubation, both the cell and “assay” plates were brought to the FLIPR and 20 μL of the diluted compounds were transferred to the cell plates by the FLIPR. Compound addition was monitored by the FLIPR to detect any agonist activity of the compounds. Plates were then incubated for 30 minutes at room temperature protected from light. After the incubation, plates were returned to the FLIPR and 20 μL of 4.5× concentrated agonist was added to the cell plates. During the assay, fluorescence readings were taken simultaneously from all 384 wells of the cell plate every 1.5 seconds. Five readings were taken to establish a stable baseline, then 20 μL of sample was rapidly (30 μL/sec) and simultaneously added to each well of the cell plate. The fluorescence was continuously monitored before, during and after sample addition for a total elapsed time of 100 seconds. Responses (increase in peak fluorescence) in each well following agonist addition was determined. The initial fluorescence reading from each well, prior to ligand stimulation, was used as zero baseline value for the data from that well. The responses were expressed as % inhibition of the buffer control. The IC50 value, defined as the concentration of a compound that is required for 50% inhibition of the buffer control, was calculated by fitting the percent inhibition data for 10 concentrations to a sigmoidal dose-response (4 parameter logistic) model using Genedata Condoseo program [model 205, F(x)=(A+(B−A)/(1+((C/x)^D))))].
# LPAR3 = LPAR3 (Homo sapiens (Human), UniProt Q9UBY5); test: Calcium flux assay using FLIPR, LPAR3 antagonist activity; format: cell-based; details: for IC50: antagonist mode, calcium flux
# Chain of LPAR3 (Q9UBY5 whole entry, species assumed): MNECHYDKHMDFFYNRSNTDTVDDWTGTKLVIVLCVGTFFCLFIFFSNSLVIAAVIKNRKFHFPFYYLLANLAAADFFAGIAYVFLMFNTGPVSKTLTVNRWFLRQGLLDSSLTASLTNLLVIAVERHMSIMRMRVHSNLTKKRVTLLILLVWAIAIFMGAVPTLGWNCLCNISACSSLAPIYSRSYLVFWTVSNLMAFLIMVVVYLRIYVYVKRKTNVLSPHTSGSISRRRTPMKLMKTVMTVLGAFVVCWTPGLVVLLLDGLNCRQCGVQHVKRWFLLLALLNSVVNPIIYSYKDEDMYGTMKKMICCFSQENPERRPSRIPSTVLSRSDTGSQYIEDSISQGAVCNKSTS
# Method: as §1, §2, §3, §4
# Chain of human recombinant LPA1 Lysophospholipid receptor (Q92633 whole entry): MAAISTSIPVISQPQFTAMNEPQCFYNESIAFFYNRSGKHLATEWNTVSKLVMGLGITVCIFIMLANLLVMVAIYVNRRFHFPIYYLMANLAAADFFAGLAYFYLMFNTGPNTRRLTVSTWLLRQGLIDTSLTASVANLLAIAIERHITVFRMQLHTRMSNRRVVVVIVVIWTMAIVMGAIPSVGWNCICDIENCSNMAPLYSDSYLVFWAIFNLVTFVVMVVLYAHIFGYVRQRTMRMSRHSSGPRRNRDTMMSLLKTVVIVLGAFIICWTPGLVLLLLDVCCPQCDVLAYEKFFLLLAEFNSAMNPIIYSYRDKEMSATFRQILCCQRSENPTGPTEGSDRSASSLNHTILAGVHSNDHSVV
structure (smiles),measurement,setting,value
"CC(OC(=O)Nc1c(-c2ccc(-c3ccc(C4(C(=O)O)CC4)cc3)cc2)nnn1C)c1cccc(C(F)(F)F)c1 (racemic) [Example 4, 1-(4′-{1-Methyl-5-[1-(3-trifluoromethyl-phenyl)-ethoxycarbonylamino]-1H-[1,2,3]triazol-4-yl}-biphenyl-4-yl)-cyclopropanecarboxylic acid]",IC50,[1],0.046 µM
same,IC50,LPAR3,0.279 µM
"C[C@@H](OC(=O)Nc1c(-c2ccc(Br)cc2)nnn1C)c1ccccc1 [Example 1, [5-(4-Bromo-phenyl)-3-methyl-3H-[1,2,3]triazol-4-yl]-carbamic acid (R)-1-phenyl-ethyl ester]",IC50,[1],21.9 µM
same,inhibition at 30 µM,[1]; at 30 μM,52.3%
same,IC50,LPAR3,> 30 µM
"C[C@@H](OC(=O)Nc1c(-c2ccc(-c3ccc(C4(C(=O)O)CC4)cc3)cc2)nnn1C)c1ccccc1 [Example 2, 1-{4′-[1-Methyl-5-((R)-1-phenyl-ethoxycarbonylamino)-1H-[1,2,3]triazol-4-yl]-biphenyl-4-yl}-cyclopropanecarboxylic acid]",IC50,[1],0.018 µM
same,IC50,LPAR3,2.29 µM
"C[C@@H](OC(=O)Nc1c(-c2ccc(-c3ccc(CC(=O)O)cc3)cc2)nnn1C)c1ccccc1 [Example 3, {4′-[1-Methyl-5-((R)-1-phenyl-ethoxycarbonylamino)-1H-[1,2,3]triazol-4-yl]-biphenyl-4-yl}-acetic acid]",IC50,[1],0.048 µM
same,IC50,LPAR3,21.9 µM
same,inhibition at 30 µM,LPAR3,58.2%
"C[C@H](OC(=O)Nc1c(-c2ccc(-c3ccc(C4(C(=O)O)CC4)cc3)cc2)nnn1C)c1cccc(C(F)(F)F)c1 [Example 5, 1-(4′-{1-Methyl-5-[(S)-1-(3-trifluoromethyl-phenyl)-ethoxycarbonylamino]-1H-[1,2,3]triazol-4-yl}-biphenyl-4-yl)-cyclopropanecarboxylic acid]",IC50,[1],2.66 µM
same,IC50,LPAR3,6.31 µM
"C[C@@H](OC(=O)Nc1c(-c2ccc(-c3ccc(C4(C(=O)O)CC4)cc3)cc2)nnn1C)c1cccc(C(F)(F)F)c1 [Example 6, 1-(4′-{1-Methyl-5-[(R)-1-(3-trifluoromethyl-phenyl)-ethoxycarbonylamino]-1H-[1,2,3]triazol-4-yl}-biphenyl-4-yl)-cyclopropanecarboxylic acid]",IC50,[1],0.018 µM
same,IC50,LPAR3,0.132 µM
"CC(C)[C@@H](C)OC(=O)Nc1c(-c2ccc(-c3ccc(C4(C(=O)O)CC4)cc3)cc2)nnn1C [Example 7, 1-{4′-[5-((R)-1,2-Dimethyl-propoxycarbonylamino)-1-methyl-1H-[1,2,3]triazol-4-yl]biphenyl-4-yl}-cyclopropanecarboxylic acid]",IC50,[1],0.07 µM
same,IC50,LPAR3,> 30 µM
"C[C@@H](OC(=O)Nc1nnn(C)c1-c1ccc(-c2ccc(C3(C(=O)O)CC3)cc2)cc1)c1ccccc1 [Example 8, 1-{4′-[3-Methyl-5-((R)-1-phenyl-ethoxycarbonylamino)-3H-[1,2,3]triazol-4-yl]-biphenyl-4-yl}-cyclopropanecarboxylic acid]",IC50,[1],> 30 µM
same,IC50,LPAR3,> 30 µM
"C[C@@H](OC(=O)Nc1c(-c2ccc(-c3cccc(C4(C(=O)O)CC4)c3)cc2)nnn1C)c1ccccc1 [Example 9, (R)-1-(4′-(1-Methyl-5-((1-phenylethoxy)carbonylamino)-1H-1,2,3-triazol-4-yl)biphenyl-3-yl)cyclopropanecarboxylic acid]",IC50,[1],4.45 µM
same,IC50,LPAR3,18.4 µM
same,inhibition at 30 µM,LPAR3,62%
"COC(=O)C1(c2ccc(-c3ccc(-c4nnn(C)c4NC(=O)O[C@H](C)c4ccccc4)c(F)c3)cc2)CC1 [Example 10, 1-{3′-Fluoro-4′-[1-methyl-5-((R)-1-phenyl-ethoxycarbonylamino)-1H-[1,2,3]triazole-4-yl]-biphenyl-4-yl}-cyclopropanecarboxylic acid methyl ester]",IC50,[1],> 30 µM
same,IC50,LPAR3,> 30 µM
"C[C@@H](OC(=O)Nc1c(-c2ccc(-c3ccc(C4(C(=O)O)CC4)cc3)cc2F)nnn1C)c1ccccc1 [Example 11, 1-{3′-Fluoro-4′-[1-methyl-5-((R)-1-phenyl-ethoxycarbonylamino)-1H-[1,2,3]triazole-4-yl]-biphenyl-4-yl}-cyclopropanecarboxylic acid]",IC50,[1],0.018 µM
same,IC50,LPAR3,27.4 µM
same,inhibition at 30 µM,LPAR3,62%
"C[C@@H](OC(=O)Nc1c(-c2ccc(-c3ccc(C4(C(=O)NS(C)(=O)=O)CC4)cc3)cc2)nnn1C)c1ccccc1 [Example 12, {5-[4′-(1-Methanesulfonylaminocarbonyl-cyclopropyl)-biphenyl-4-yl]-3-methyl-3H-[1,2,3]triazol-4-yl}-carbamic acid (R)-1-phenyl-ethyl ester]",IC50,[1],0.0188 µM
same,IC50,LPAR3,2.31 µM
"C[C@@H](OC(=O)Nc1c(-c2ccc(-c3ccc(C4(C(=O)NS(C)(=O)=O)CC4)cc3)cc2)nnn1C)c1cccc(C(F)(F)F)c1 [Example 13, {5-[4′-(1-Methanesulfonylaminocarbonyl-cyclopropyl)-biphenyl-4-yl]-3-methyl-3H-[1,2,3]triazol-4-yl}-carbamic acid (R)-1-(3-trifluoromethyl-phenyl)-ethyl ester]",IC50,[1],0.0245 µM
same,IC50,LPAR3,0.0657 µM
"C[C@@H](OC(=O)Nc1c(-c2ccc(C3CCC(CC(=O)O)CC3)cc2)nnn1C)c1ccccc1 (stereo partly drawn) [Example 14, (4-{4-[1-Methyl-5-((R)-1-phenyl-ethoxycarbonylamino)-1H-[1,2,3]triazol-4-yl]-phenyl}-cyclohexyl)-acetic acid]",IC50,[1],0.058 µM
same,IC50,LPAR3,18.6 µM
same,inhibition at 30 µM,LPAR3,68%
